Reference: PubChem BioAssay AID248 (DTP/NCI, 2004)
“And” between values parts separate entries of the source, which are not always exact repeats. Identical values can stand only once. Toxic doses and inconclusive results are not listed.

Tested on: L1210 leukemia ip in BDF1 mice, survival T/C
Experiment: NCI In Vivo Anticancer Drug Screen. Data for tumor model L1210 Leukemia (intraperitoneal) in B6D2F1 (BDF1) mice
Details: endpoint: mean survival time, higher = longer survival
In short: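 Transplantable tumor model; survival measured in treated vs vehicle control mice. Value = treated/control.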

[1] = dose: 100.0 mg/kg/injection, schedule: Q01DX009 (ip), vehicle: saline
[2] = dose: 100.0 mg/kg/injection, schedule: Q01DX001 (ip), vehicle: saline
[3] = dose: 200.0 mg/kg/injection, schedule: Q01DX001 (ip), vehicle: saline
[4] = dose: 400.0 mg/kg/injection, schedule: Q01DX001 (ip), vehicle: saline
[5] = dose: 100.0 mg/kg/injection, schedule: Q01DX001 (ip), vehicle: Klucel (hydroxypropylcellulose) (HPC)
[6] = dose: 200.0 mg/kg/injection, schedule: Q01DX001 (ip), vehicle: Klucel (hydroxypropylcellulose) (HPC)
[7] = dose: 400.0 mg/kg/injection, schedule: Q01DX001 (ip), vehicle: Klucel (hydroxypropylcellulose) (HPC)
[8] = dose: 100.0 mg/kg/injection, schedule: Q04DX003 (ip), vehicle: saline
[9] = dose: 100.0 mg/kg/injection, schedule: Q01DX009 (ip), vehicle: saline with Tween-80
[10] = dose: 200.0 mg/kg/injection, schedule: Q01DX009 (ip), vehicle: saline with Tween-80

CO[C@H](C)[C@](O)(C(=O)OCC1=CCN2CC[C@@H](O)[C@H]12)C(C)C
T/C (dose: 65.0 mg/kg/injection, schedule: Q01DX009 (ip), vehicle: saline): 95 % of control and 109 % of control | T/C (dose: 75.0 mg/kg/injection, schedule: Q01DX001 (ip), vehicle: acetone): 106 % of control | T/C [1]: 95 % of control and 105 % of control | T/C (dose: 150.0 mg/kg/injection, schedule: Q01DX001 (ip), vehicle: acetone): 103 % of control | T/C (dose: 150.0 mg/kg/injection, schedule: Q01DX009 (ip), vehicle: saline): 94 % of control | T/C (dose: 300.0 mg/kg/injection, schedule: Q01DX001 (ip), vehicle: acetone): 106 % of control

O=C1OC2CCCCC1CC2 (configuration not stated)
T/C [2]: 108 % of control | T/C [3]: 110 % of control | T/C [4]: 87 % of control

CCC(=O)C(CCCN(C)C)(c1ccccc1)c1ccccc1
T/C (dose: 5.0 mg/kg/injection, schedule: Q01DX001 (ip), vehicle: saline): 107 % of control | T/C (dose: 10.0 mg/kg/injection, schedule: Q01DX001 (ip), vehicle: saline): 104 % of control | T/C (dose: 20.0 mg/kg/injection, schedule: Q01DX001 (ip), vehicle: saline): 93 % of control | T/C (dose: 40.0 mg/kg/injection, schedule: Q01DX001 (ip), vehicle: saline): 98 % of control

C=CCc1c[nH]c(=O)[nH]c1=O
T/C (dose: 50.0 mg/kg/injection, schedule: Q04DX003 (ip), vehicle: Klucel (hydroxypropylcellulose) (HPC)): 100 % of control | T/C (dose: 100.0 mg/kg/injection, schedule: Q04DX003 (ip), vehicle: Klucel (hydroxypropylcellulose) (HPC)): 108 % of control and 91 % of control | T/C (dose: 200.0 mg/kg/injection, schedule: Q04DX003 (ip), vehicle: Klucel (hydroxypropylcellulose) (HPC)): 97 % of control and 100 % of control | T/C (dose: 400.0 mg/kg/injection, schedule: Q04DX003 (ip), vehicle: Klucel (hydroxypropylcellulose) (HPC)): 90 % of control

NNC(=O)c1ccc(Cl)cc1Nc1ccccc1
T/C [5]: 95 % of control | T/C (dose: 100.0 mg/kg/injection, schedule: Q01DX009 (ip), vehicle: Klucel (hydroxypropylcellulose) (HPC)): 107 % of control | T/C [6]: 86 % of control | T/C (dose: 200.0 mg/kg/injection, schedule: Q01DX009 (ip), vehicle: Klucel (hydroxypropylcellulose) (HPC)): 94 % of control | T/C [7]: 97 % of control

COc1ccc(CC(N)C(=O)O)cc1N(CCCl)CCCl (configuration not stated)
T/C (dose: 0.07 mg/kg/injection, schedule: Q01DX009 (ip), vehicle: carboxymethylcellulose (CMC)): 116 % of control | T/C (dose: 0.08 mg/kg/injection, schedule: Q01DX009 (ip), vehicle: carboxymethylcellulose (CMC)): 117 % of control | T/C (dose: 0.4 mg/kg/injection, schedule: Q01DX009 (ip), vehicle: carboxymethylcellulose (CMC)): 110 % of control | T/C (dose: 0.6 mg/kg/injection, schedule: Q01DX001 (ip), vehicle: carboxymethylcellulose (CMC)): 111 % of control and 108 % of control | T/C (dose: 1.2 mg/kg/injection, schedule: Q01DX001 (ip), vehicle: carboxymethylcellulose (CMC)): 120 % of control and 106 % of control | T/C (dose: 1.2 mg/kg/injection, schedule: Q01DX009 (ip), vehicle: carboxymethylcellulose (CMC)): 150 % of control | T/C (dose: 1.5 mg/kg/injection, schedule: Q01DX009 (ip), vehicle: carboxymethylcellulose (CMC)): 151 % of control | T/C (dose: 2.0 mg/kg/injection, schedule: Q01DX009 (ip), vehicle: carboxymethylcellulose (CMC)): 166 % of control | T/C (dose: 2.5 mg/kg/injection, schedule: Q01DX001 (ip), vehicle: carboxymethylcellulose (CMC)): 121 % of control and 110 % of control | T/C (dose: 2.5 mg/kg/injection, schedule: Q01DX009 (ip), vehicle: carboxymethylcellulose (CMC)): 227 % of control | T/C (dose: 3.0 mg/kg/injection, schedule: Q01DX009 (ip), vehicle: carboxymethylcellulose (CMC)): 183 % of control | T/C (dose: 4.5 mg/kg/injection, schedule: Q01DX009 (ip), vehicle: carboxymethylcellulose (CMC)): 180 % of control and 213 % of control | T/C (dose: 5.0 mg/kg/injection, schedule: Q01DX001 (ip), vehicle: carboxymethylcellulose (CMC)): 123 % of control | T/C (dose: 5.0 mg/kg/injection, schedule: Q01DX009 (ip), vehicle: carboxymethylcellulose (CMC)): 92 % of control | T/C (dose: 5.5 mg/kg/injection, schedule: Q01DX001 (ip), vehicle: carboxymethylcellulose (CMC)): 151 % of control and 152 % of control | T/C (dose: 6.0 mg/kg/injection, schedule: Q01DX009 (ip), vehicle: carboxymethylcellulose (CMC)): 98 % of control | T/C (dose: 7.0 mg/kg/injection, schedule: Q01DX009 (ip), vehicle: carboxymethylcellulose (CMC)): 116 % of control | T/C (dose: 11.0 mg/kg/injection, schedule: Q01DX001 (ip), vehicle: carboxymethylcellulose (CMC)): 206 % of control | T/C (dose: 12.0 mg/kg/injection, schedule: Q01DX009 (ip), vehicle: carboxymethylcellulose (CMC)): 93 % of control | T/C (dose: 16.5 mg/kg/injection, schedule: Q01DX001 (ip), vehicle: carboxymethylcellulose (CMC)): 173 % of control | T/C (dose: 25.0 mg/kg/injection, schedule: Q01DX001 (ip), vehicle: carboxymethylcellulose (CMC)): 217 % of control

Nc1nc(=S)c2nc(CNc3ccc(C(=O)NC(CCC(=O)O)C(=O)O)cc3)nnc2[nH]1 (configuration not stated)
T/C (dose: 100.0 mg/kg/injection, schedule: Q01DX001 (ip), vehicle: saline with Tween-80): 103 % of control | T/C (dose: 200.0 mg/kg/injection, schedule: Q01DX001 (ip), vehicle: saline with Tween-80): 105 % of control

O=c1nc2c(ncn2C2OC(CO)C(O)C2O)c(NCCc2ccccc2)[nH]1 (configuration not stated)
T/C (dose: 50.0 mg/kg/injection, schedule: Q01DX005 (ip), vehicle: water): 100 % of control | T/C (dose: 100.0 mg/kg/injection, schedule: Q01DX005 (ip), vehicle: water): 94 % of control | T/C (dose: 200.0 mg/kg/injection, schedule: Q01DX005 (ip), vehicle: water): 105 % of control | T/C (dose: 400.0 mg/kg/injection, schedule: Q01DX005 (ip), vehicle: water): 113 % of control

O=P(O)(N(CCCl)CCCl)N1CCN(P(=O)(O)N(CCCl)CCCl)CC1
T/C (dose: 10.0 mg/kg/injection, schedule: Q01DX015 (ip), vehicle: saline): 110 % of control | T/C (dose: 30.0 mg/kg/injection, schedule: Q01DX015 (ip), vehicle: saline): 119 % of control | T/C [2]: 115 % of control | T/C [3]: 113 % of control | T/C [4]: 124 % of control

COC(=O)c1cncn1C(C)c1ccccc1 (configuration not stated)
T/C (dose: 25.0 mg/kg/injection, schedule: Q04DX003 (ip), vehicle: saline): 97 % of control | T/C (dose: 50.0 mg/kg/injection, schedule: Q01DX009 (ip), vehicle: saline): 104 % of control | T/C (dose: 50.0 mg/kg/injection, schedule: Q04DX003 (ip), vehicle: saline): 95 % of control | T/C [1]: 109 % of control | T/C [8]: 97 % of control and 101 % of control

CC1=CCCCC1Br (configuration not stated)
T/C (dose: 100.0 mg/kg/injection, schedule: Q04DX003 (ip), vehicle: saline with Tween-80): 96 % of control | T/C (dose: 200.0 mg/kg/injection, schedule: Q04DX003 (ip), vehicle: saline with Tween-80): 101 % of control | T/C (dose: 400.0 mg/kg/injection, schedule: Q04DX003 (ip), vehicle: saline with Tween-80): 98 % of control

Nc1ccc(N=Nc2ccc(S(=O)(=O)Nc3ccccn3)cc2)c(N)n1
T/C [2]: 96 % of control | T/C [3]: 102 % of control | T/C [4]: 105 % of control

O=C(OC1OC(COCc2ccccc2)C(OCc2ccccc2)C1OCc1ccccc1)c1ccccc1 (configuration not stated)
T/C [5]: 92 % of control and 98 % of control | T/C [6]: 100 % of control and 98 % of control | T/C [7]: 94 % of control and 113 % of control

Clc1ccc(N=CC2CCC=CO2)cc1 (configuration not stated)
T/C (dose: 222.0 mg/kg/injection, schedule: Q01DX Z (ip), vehicle: saline): 92 % of control | T/C (dose: 333.0 mg/kg/injection, schedule: Q01DX Z (ip), vehicle: saline): 95 % of control | T/C (dose: 500.0 mg/kg/injection, schedule: Q01DX Z (ip), vehicle: saline): 92 % of control

COc1ccc(C)cc1NC(=O)NC(C)=O
T/C (dose: 50.0 mg/kg/injection, schedule: Q01DX009 (ip), vehicle: saline with Tween-80): 92 % of control | T/C [9]: 88 % of control | T/C [10]: 95 % of control

O=C1CCCCC1c1sc([N+](=O)[O-])cc1[N+](=O)[O-] (configuration not stated)
T/C (dose: 100.0 mg/kg/injection, schedule: Q04DX002 (ip), vehicle: saline with Tween-80): 93 % of control | T/C (dose: 200.0 mg/kg/injection, schedule: Q04DX002 (ip), vehicle: saline with Tween-80): 104 % of control

CCCCC(=O)C(OC)OC
T/C [9]: 119 % of control | T/C [10]: 95 % of control | T/C (dose: 400.0 mg/kg/injection, schedule: Q01DX009 (ip), vehicle: saline with Tween-80): 92 % of control

C#CC1(OC(O)C(Cl)(Cl)Cl)CCCCC1 (configuration not stated)
T/C [8]: 103 % of control | T/C (dose: 200.0 mg/kg/injection, schedule: Q04DX003 (ip), vehicle: saline): 106 % of control | T/C (dose: 400.0 mg/kg/injection, schedule: Q04DX003 (ip), vehicle: saline): 103 % of control
